From US7998971B2, “Combinations containing a 4-acylaminopyridine derivative” (BrainCells Inc., priority 2006, dated 2011)
pEC50: −log10 of the molar value. Where two headings read alike, the source gives them in different places.

How the values were obtained:
[1] = tested on: human neural stem cells (hNSCs); assay: Neuronal differentiation of human neural stem cells (TUJ-1 staining, concentration response curves); format: cell-based; conditions: for pEC50: Homo sapiens, Neural stem cell; for maximum neuronal differentiation percent of positive control: MKC-231 CRC 0.01-31.6 uM, azakenpaullone CRC 0.001-3.2 uM
Source text: Mitogen-free test media with a positive control for neuronal differentiation was used along with basal media without growth factors as a negative control. […]

[2] = molecular target: acetylcholinesterase (AChE) (Homo sapiens, UniProt P22303); conditions: cited from earlier work
[3] = tested on: mGlu7 and mGlu8; conditions: above 1 μM; cited from earlier work
[4] = agent alone, hNSCs, percentage of neuronal positive control, basal media subtracted, read-out: EC50 of neuronal differentiation, agent used alone

Sequence of acetylcholinesterase (AChE) (P22303 32-614, species assumed): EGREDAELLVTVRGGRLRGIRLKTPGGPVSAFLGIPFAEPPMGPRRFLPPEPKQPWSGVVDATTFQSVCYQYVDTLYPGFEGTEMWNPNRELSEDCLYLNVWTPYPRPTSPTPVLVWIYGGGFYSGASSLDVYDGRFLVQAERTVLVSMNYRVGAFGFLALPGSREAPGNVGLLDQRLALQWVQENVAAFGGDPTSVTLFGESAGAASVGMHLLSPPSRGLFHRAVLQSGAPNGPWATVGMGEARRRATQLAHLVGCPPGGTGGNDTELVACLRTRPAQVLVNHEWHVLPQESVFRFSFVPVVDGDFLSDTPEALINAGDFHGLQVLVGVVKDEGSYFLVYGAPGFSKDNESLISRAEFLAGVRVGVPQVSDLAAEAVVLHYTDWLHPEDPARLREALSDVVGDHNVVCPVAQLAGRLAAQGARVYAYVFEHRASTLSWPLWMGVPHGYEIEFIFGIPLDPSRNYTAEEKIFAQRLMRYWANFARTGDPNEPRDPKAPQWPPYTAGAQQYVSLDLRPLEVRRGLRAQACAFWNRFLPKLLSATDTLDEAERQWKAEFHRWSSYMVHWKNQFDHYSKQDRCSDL

**Q.** With `CC(C)c1c(C(=O)Nc2ccccc2)c(-c2ccccc2)c(-c2ccc(F)cc2)n1CC[C@@H](O)C[C@@H](O)CC(=O)O` [atorvastatin] as the molecule, how does the pEC50 [1, 4] read?
**A.** The pEC50 was 8.52.

**Q.** For `Cc1onc(O)c1CC(N)C(=O)O` (stereo not drawn) [AMPA, α-amino-3-hydroxy-5-methylisoxazole-4-propionic acid], which “effect on differentiation at 0.316 μM” value ([1]; AMPA alone at 0.316 μM) is on record?
**A.** Its value is “no effect”.

**Q.** What about the pEC50 ([1]; read-out: EC50 of neuronal differentiation, agent used alone) of the same molecule?
**A.** Its pEC50 is roughly 4.50.

**Q.** With `O=C1CC[C@@]2(O)[C@H]3Cc4ccc(O)c5c4[C@@]2(CCN3CC2CC2)[C@H]1O5` [naltrexone] as the molecule, how does the pEC50 [1, 4] read?
**A.** Its pEC50 is 5.35.

**Q.** With `CN(CCOc1ccc(CC2SC(=O)NC2=O)cc1)c1ccccn1` (stereo not drawn) [rosiglitazone] as the molecule, how does the pEC50 [1, 4] read?
**A.** The pEC50 was 5.44.

**Q.** With `Cc1oc2nc3c(c(NC(=O)CN4CCCC4=O)c2c1C)CCCC3` [MKC-231, 2-(2-oxopyrrolidin-1-yl)-N-(2,3-dimethyl-5,6,7,8-tetrahydrofuro[2,3-b]-quinolin-4-yl)acetoamide] as the molecule, how does the pEC50 [1, 4] read?
**A.** The pEC50 was 5.07.

**Q.** What about the “maximum neuronal differentiation percent of positive control” value ([1]; hNSCs) of the same molecule?
**A.** Its value is 53%.

**Q.** What about the AChE inhibitory activity [2] of the same molecule?
**A.** The AChE inhibitory activity was “does not have such inhibitory activity”.

**Q.** With `C[C@]12CC[C@@H]3c4ccc(O)cc4CC[C@H]3[C@@H]1CC[C@@H]2O` [estradiol] as the molecule, how does the pEC50 ([1]; agent alone, hNSCs, extrapolated, read-out: EC50 of neuronal differentiation, agent used alone, estimated by extrapolation of the observed data) read?
**A.** Its pEC50 is 5.36.

**Q.** With `N[C@](CC1c2ccccc2Oc2ccccc21)(C(=O)O)[C@H]1C[C@@H]1C(=O)O` [LY341495, (2S)-2-amino-2-(1S,2S-2-carboxycycloprop-1-yl)-3-(xanth-9-yl) propanoic acid] as the molecule, how does the “activity against mGlu7 and mGlu8 at higher concentrations” value [3] read?
**A.** Its value is “antagonist activity”.

**Q.** With `Clc1ccc2c(c1)N=C(N1CCNCC1)c1ccccc1N2` [N-desmethylclozapine] as the molecule, how does the neurogenic activity ([1]; assays as disclosed herein) read?
**A.** Its neurogenic activity is “highly neurogenic”.

**Q.** Which “maximum neuronal differentiation percent of positive control” value ([1]; hNSCs) does the source give for `O=C1Cc2c([nH]c3ccc(Br)cc23)-c2ncccc2N1` [azakenpaullone] here?
**A.** The value was 120%.
